Test results: ChEMBL document CHEMBL1157877, “Design, synthesis and biological evaluation of new ionone derivatives as potential neuroprotective agents in cerebral ischemia” (2010)

Legend:
Assay type in all cases: functional
Neuron [1] = experiment: Neuroprotective effect against H202-induced Sprague-Dawley rat neuron injury assessed as apoptic cells by annexin V-propidium iodide staining by flow cytometry; parameters: concentration or dose not given beside the values
Neuron [2] = experiment: Neuroprotective effect against H202-induced Sprague-Dawley rat neuron injury assessed as necrotic cells by annexin V-propidium iodide staining by flow cytometry (reference value: 1.02% +/-0.4%)
Neuron [3] = experiment: Neuroprotective effect against H202-induced Sprague-Dawley rat neuron injury assessed as early apoptic cells by annexin V-propidium iodide staining by flow cytometry (reference value: 3.09% +/- 1.40%)
Neuron [4] = experiment: Neuroprotective effect against H202-induced Sprague-Dawley rat neuron injury assessed as viable cells by annexin V-propidium iodide staining by flow cytometry (reference value: 93.66%+/-2.19%)
Neuron [5] = experiment: Neuroprotective effect against H202-induced Sprague-Dawley rat neuron injury assessed as late apoptic cells by annexin V-propidium iodide staining by flow cytometry (Rvb= 2.22%+/-0.70%)
Neuron [6] = experiment: Neuroprotective effect against H202-induced Sprague-Dawley rat neuron injury assessed as cell viability by annexin V-propidium iodide staining by flow cytometry

Row | Compound | Activity (Neuron [1]) [%] | Activity (Neuron [2]) [%] | Activity (Neuron [3]) [%] | Activity (Neuron [4]) [%] | Activity (Neuron [5]) [%] | Activity (Neuron [6]) [%]
1 | CC1=CCCC(C)(C)C1/C=C/C(C)(O)c1ccc(C(F)(F)F)cc1 (stereo unspecified) | 72.6 | 0.057 | 72.6 | 5.09 | 22.23 | –
2 | CC1=CCCC(C)(C)C1/C=C/C(C)(O)c1ccc(C(C)(C)C)cc1 (stereo unspecified) | 62.1 | 0.05 | 62.1 | 7.36 | 30.4 | –
3 | COc1ccc(C(C)(O)/C=C/C2C(C)=CCCC2(C)C)cc1OC (stereo unspecified) | 57.36 | 0.065 | 57.36 | 3.9 | 38.5 | –
4 | CC1=CCCC(C)(C)C1/C=C/C(C)(O)c1ccsc1 (stereo unspecified) | 50.9 | 0.025 | 50.9 | 6.8 | 42.09 | –
5 | CSc1ccc(C(C)(O)/C=C/C2C(C)=CCCC2(C)C)cc1 (stereo unspecified) | – | 0.58 | 50.55 | 33.43 | 15.43 | –
6 | COc1ccccc1C(C)(O)/C=C/C1C(C)=CCCC1(C)C (stereo unspecified) | – | 0.42 | 39.8 | 44.4 | 15.2 | –
7 | CCCOc1ccc(C(C)(O)/C=C/C2C(C)=CCCC2(C)C)cc1 (stereo unspecified) | – | 3 | 4.31 | 91.9 | 0.7 | –
8 | CCOc1ccc(C(C)(O)/C=C/C2C(C)=CCCC2(C)C)cc1 (stereo unspecified) | – | 1.32 | 31.4 | 50.8 | 16.3 | –
9 | COc1ccc(C(C)(O)/C=C/C2=C(C)CCCC2(C)C)cc1 (stereo unspecified) | – | 3.42 | 12.2 | 75.25 | 9.06 | 75.25
10 | COc1cccc(C(C)(O)/C=C/C2=C(C)CCCC2(C)C)c1 (stereo unspecified) | – | 7.39 | 4.95 | 82.3 | 5.35 | –
11 | CC1=CCCC(C)(C)C1/C=C/C(C)(O)c1cc(C)ccc1C (stereo unspecified) | 55.1 | 0.045 | 55.1 | 6.4 | 38.3 | –
12 | COc1ccc(C(C)(O)/C=C/C2C(C)=CCCC2(C)C)cc1 (stereo unspecified) | – | 1.14 | 41.37 | 37.75 | 19.72 | –
13 | CCCCCOc1ccc(C(C)(O)/C=C/C2C(C)=CCCC2(C)C)cc1 (stereo unspecified) | – | 0.61 | 25.77 | 60.91 | 12.7 | –
14 | CSc1ccc(C(C)(O)/C=C/C2=C(C)CCCC2(C)C)cc1 (stereo unspecified) | – | 0.21 | 30.89 | 66.4 | 2.5 | –
15 | CCCCCOc1ccc(C(C)(O)/C=C/C2=C(C)CCCC2(C)C)cc1 (stereo unspecified) | – | 0.26 | 26.48 | 69.25 | 4.02 | –
16 | CCCOc1ccc(C(C)(O)/C=C/C2=C(C)CCCC2(C)C)cc1 (stereo unspecified) | – | 0.52 | 53.84 | 29 | 16.6 | –
17 | CCOc1ccc(C(C)(O)/C=C/C2=C(C)CCCC2(C)C)cc1 (stereo unspecified) | – | 0.93 | 50.34 | 33.1 | 15.62 | –
18 | COc1cccc(C(C)(O)/C=C/C2C(C)=CCCC2(C)C)c1 (stereo unspecified) | – | 3.89 | 25.02 | 61.7 | 9.4 | 61.7
19 | CC1=CCCC(C)(C)C1/C=C/C(C)(O)c1ccccc1 (stereo unspecified) | 62.9 | 0.05 | 62.9 | 6.5 | 30.47 | –
20 | COc1ccccc1C(C)(O)/C=C/C1=C(C)CCCC1(C)C (stereo unspecified) | – | 0.32 | 66.1 | 19 | 14.5 | –
21 | COc1cc(/C=C/C(=O)CC(=O)/C=C/c2ccc(O)c(OC)c2)ccc1O [CURCUMIN] | – | 1.89 | 24.15 | 79.9 | 7.3 | –
22 | C[C@]12N[C@H](Cc3ccccc31)c1ccccc12.O=C(O)/C=C\C(=O)O [DIZOCILPINE MALEATE] | – | 1.96 | 14.9 | 82.45 | 1.56 | –
